Data from patent US20090041823A1, “Agent-releasing Vascular Prosthesis” (priority 2003, published 2009).

System: intimal hyperplasia
Experiment: Patch plasty implantation at the iliac bifurcation, animal model
Type: in vivo, mini-pigs of the Gottingen type
Experimental: In a last step the prostheses were implanted in a preliminary animal trial in order to show the impact on intimal hyperplasia. Six mini-pigs of the Gottingen type were used as test animals. The Aa iliacae was prepared by a transperitonial access under general i.v. anaesthesia (Thiopental®) and each a multifunctional and a standard prosthesis were introduced into every animal. All animals obtained an antibiotic prophylaxis (Spizef®) and were anticoagulized with heparin.
As medicaments each of paclitaxel, sirolimus and IS was used twice. We have applied patch plasties as the border line between prosthesis and artery is bigger compared to end-to-end anastomoses and we could thus assess intimal hyperplasia in cross-section very well. The animals were again subjected to surgery after six weeks and the iliac bifurcation was explanted. Samples in longitudinal direction were derived from the patch plastics in the proximal and in the distal region, respectively, and samples in transversal direction were derived from the medium region. These samples were fixed in formaldehyde. The further processing comprised dehydration in an increasing alcohol series until embedding into paraffin. The preparations were cut and stained in HE and Tri-PAS. Apart from the extent of IH, also integration and inflammatory reactions were assessed.

For CC(=O)O[C@H]1C(=O)[C@@]2(C)[C@H]([C@H](OC(=O)c3ccccc3)[C@]3(O)C[C@H](OC(=O)[C@H](O)[C@@H](NC(=O)c4ccccc4)c4ccccc4)C(C)=C1C3(C)C)[C@]1(OC(C)=O)CO[C@@H]1C[C@@H]2O [paclitaxel], the “integration of the prosthesis” value (explanted after 6 weeks) was “well integrated from outside” and the endothelialization (patch plasty, explanted after six weeks) was “complete suppression of endothelialization”.
